# Reference: US9732065B2, “Cyclic aminomethyl pyrimidine derivative” (Sumitomo Dainippon Pharma Co., Ltd., priority 2013, dated 2017)
# Key:
# [1] = target: T1, Human dopamine D4 receptor (Homo sapiens, UniProt P21917); assay: Agonistic/antagonistic activity in G protein dependent pathway (aequorin intracellular calcium luminescence), D4; assay type: cell-based; design: expressed in transfected cells; host or cells: CHO-K1 or HEK293 cells; conditions: for inhibition at 0.1 µM / inhibition at 1 µM: against 10 μM endogenous ligand, read-out: Inhibitory activity on each receptor (%): D4; for Emax at 0.1 µM / Emax at 1 µM: read-out: Maximal activity on each receptor (%): D4
# T1 sequence (P21917 1-419): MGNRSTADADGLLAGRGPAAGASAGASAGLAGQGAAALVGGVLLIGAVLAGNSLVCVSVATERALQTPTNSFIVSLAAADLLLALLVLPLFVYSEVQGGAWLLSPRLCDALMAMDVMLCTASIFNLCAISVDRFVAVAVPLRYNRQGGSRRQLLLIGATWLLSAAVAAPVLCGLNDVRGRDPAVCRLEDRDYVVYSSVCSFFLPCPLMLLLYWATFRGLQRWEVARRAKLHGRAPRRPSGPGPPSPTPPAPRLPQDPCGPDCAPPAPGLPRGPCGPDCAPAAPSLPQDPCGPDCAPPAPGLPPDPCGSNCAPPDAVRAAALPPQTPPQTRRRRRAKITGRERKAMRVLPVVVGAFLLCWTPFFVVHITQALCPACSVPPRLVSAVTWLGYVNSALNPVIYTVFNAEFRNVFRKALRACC
# Protocol: (§1) Plasmids encoding each receptor, aequorin and Gα16 were prepared, and the plasmids were transfected into CHO cells (Chinese Hamster Ovary cells) or HEK293 cells (Human Embryonic Kidney 293 cells) to prepare expressing cell lines.
# (§2) The agonistic or antagonistic activity of the present compound in the G protein dependent pathway was evaluated on the basis of intracellular calcium levels as follows. CHO-K1 or HEK293 cell lines transfected with D2, D4, α1A, or α2A receptor genes were seeded in a 384-well plate, and incubated in a CO2 incubator at 37° C. for 24 hours, and then a solution of the present compound in DMSO was added into cells preloaded with coelenterazine to measure the change in luminescent signals with a FDSS (Hamamatsu Photonics K.K.). […] The agonistic activity of the present compound was calculated according to the measured luminescent signals, as the maximal activity (Emax) of the present compound. On the other hand, the antagonistic activity of the present compound was calculated according to the luminescent signals in wells with 10 μM of an endogenous ligand alone defined as 100%, as the inhibitory activity of the present compound to an endogenous ligand. EC50 value was calculated as the concentration of the present compound required to achieve a 50% response, and IC50 was calculated as the concentration of the present compound required to achieve a 50% inhibition of the Emax of an endogenous ligand.
# [2] = Brain penetration study in rat; assay type: in vivo; conditions: brain and plasma, unbound brain-to-plasma drug concentration ratio
# Protocol: In this study, the brain penetration of the present compound can be evaluated. Specifically, a 7-week-old SD-type or WKY-type rat received the subcutaneous administration of a solution of the present compound in saline or the oral administration of a suspension of the present compound in methylcellulose. Plasma and brain were collected from the treated rat 0.5 hour, 1 hour or 2 hours after the administration, and then the levels of the present compound in the plasma and the brain were measured by a LC-MS method.
# The protein binding ratios of the present compound to the plasma and the brain were measured by an equilibrium dialysis method.
# The levels of the present compound in the plasma and the brain as well as the plasma and brain protein binding ratios are applied to the following formula, and thus Kp,uu,brain (Unbound brain-to-plasma drug concentration ratio) can be calculated. Kp,uu,brain=(level of the present compound in the brain×(100−brain protein binding ratio (%))/100)/(level of the present compound in the plasma×(100−plasma protein binding ratio (%))/100)
# [3] = target: T2, human adrenergic α1A receptor (Homo sapiens, UniProt P35348); assay: Agonistic/antagonistic activity in G protein dependent pathway (aequorin intracellular calcium luminescence), α1A; assay type: cell-based; conditions: for Maximal activity on each receptor (%): α1A: 10 μM adrenaline = 100%; for inhibition at 0.1 µM / inhibition at 1 µM: against 10 μM endogenous ligand, read-out: Inhibitory activity on each receptor (%): α1A
# T2 construct: expressed in transfected cells; host or cells: CHO-K1 or HEK293 cells
# T2 sequence (P35348 1-466): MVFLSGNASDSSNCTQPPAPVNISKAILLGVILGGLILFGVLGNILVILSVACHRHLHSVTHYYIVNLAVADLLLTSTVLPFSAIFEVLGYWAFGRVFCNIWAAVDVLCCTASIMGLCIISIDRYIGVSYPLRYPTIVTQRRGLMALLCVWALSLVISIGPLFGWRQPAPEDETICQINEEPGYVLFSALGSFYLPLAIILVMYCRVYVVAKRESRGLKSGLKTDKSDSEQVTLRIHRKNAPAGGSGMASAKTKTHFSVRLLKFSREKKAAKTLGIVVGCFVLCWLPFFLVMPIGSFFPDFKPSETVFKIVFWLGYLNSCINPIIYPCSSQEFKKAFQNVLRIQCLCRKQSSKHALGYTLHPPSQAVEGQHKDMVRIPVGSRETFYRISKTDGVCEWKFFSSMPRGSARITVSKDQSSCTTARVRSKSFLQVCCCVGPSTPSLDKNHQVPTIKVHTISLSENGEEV
# Protocol: as §1, §2
# [4] = target: T3, Human dopamine D2 receptor (Homo sapiens, UniProt P14416); assay: Agonistic/antagonistic activity in G protein dependent pathway (aequorin intracellular calcium luminescence), D2; assay type: cell-based; conditions: for Maximal activity on each receptor (%): D2: 10 μM dopamine = 100%; for inhibition at 0.1 µM / inhibition at 1 µM: against 10 μM endogenous ligand, read-out: Inhibitory activity on each receptor (%): D2
# T3 construct: expressed in transfected cells; host or cells: CHO-K1 or HEK293 cells
# T3 sequence (P14416 whole entry): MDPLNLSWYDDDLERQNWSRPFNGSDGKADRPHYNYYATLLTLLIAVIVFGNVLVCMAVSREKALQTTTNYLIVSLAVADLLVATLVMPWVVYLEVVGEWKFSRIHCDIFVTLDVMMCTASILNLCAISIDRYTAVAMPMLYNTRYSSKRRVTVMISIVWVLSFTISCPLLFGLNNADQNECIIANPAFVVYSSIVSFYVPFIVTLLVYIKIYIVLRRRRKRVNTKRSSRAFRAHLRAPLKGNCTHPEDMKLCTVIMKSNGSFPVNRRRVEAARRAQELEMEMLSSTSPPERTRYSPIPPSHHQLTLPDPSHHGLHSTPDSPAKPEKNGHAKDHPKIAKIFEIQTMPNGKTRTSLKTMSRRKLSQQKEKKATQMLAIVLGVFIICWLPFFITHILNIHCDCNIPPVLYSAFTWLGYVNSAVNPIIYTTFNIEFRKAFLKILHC
# Protocol: as §1, §2
# [5] = target: T4, human adrenergic α2A receptor (Homo sapiens, UniProt P08913); assay: Agonistic/antagonistic activity in G protein dependent pathway (aequorin intracellular calcium luminescence), α2A; assay type: cell-based; conditions: for Maximal activity on each receptor (%): α2A: 10 μM adrenaline = 100%; for inhibition at 0.1 µM / inhibition at 1 µM: against 10 μM endogenous ligand, read-out: Inhibitory activity on each receptor (%): α2A
# T4 construct: expressed in transfected cells; host or cells: CHO-K1 or HEK293 cells
# T4 sequence (P08913 1-465): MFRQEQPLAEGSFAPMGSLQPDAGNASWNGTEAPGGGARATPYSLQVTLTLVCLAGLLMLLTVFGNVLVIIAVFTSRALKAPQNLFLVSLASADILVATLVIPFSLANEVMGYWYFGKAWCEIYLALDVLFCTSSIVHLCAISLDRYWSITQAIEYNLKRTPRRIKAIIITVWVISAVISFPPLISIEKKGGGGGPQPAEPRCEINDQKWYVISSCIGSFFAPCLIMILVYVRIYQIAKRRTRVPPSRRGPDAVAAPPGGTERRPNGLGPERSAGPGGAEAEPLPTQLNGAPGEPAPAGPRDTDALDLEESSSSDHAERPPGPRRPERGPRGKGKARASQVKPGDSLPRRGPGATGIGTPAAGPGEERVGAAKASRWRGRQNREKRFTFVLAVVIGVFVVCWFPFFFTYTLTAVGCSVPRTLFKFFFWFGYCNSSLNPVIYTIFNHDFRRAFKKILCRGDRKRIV
# Protocol: as §1, §2
SMILES,inhibition at 0.1 µM [1],inhibition at 1 µM [1],Emax at 0.1 µM [1],Emax at 1 µM [1],Kp uu [2],Maximal activity on each receptor (%): α1A ([3]; 0.1 μM),inhibition at 0.1 µM ([3]; 0.1 μM),Maximal activity on each receptor (%): α1A ([3]; 1 μM),inhibition at 1 µM ([3]; 1 μM),Maximal activity on each receptor (%): D2 ([4]; 0.1 μM),inhibition at 0.1 µM ([4]; 0.1 μM),Maximal activity on each receptor (%): D2 ([4]; 1 μM),inhibition at 1 µM ([4]; 1 μM),Maximal activity on each receptor (%): α2A ([5]; 0.1 μM),inhibition at 0.1 µM ([5]; 0.1 μM),Maximal activity on each receptor (%): α2A ([5]; 1 μM),inhibition at 1 µM ([5]; 1 μM)
"Cc1ncc(CN2CCC(c3ccccn3)CC2)c(N)n1 [Example 5, 2-Methyl-5-[4-(pyridin-2-yl)piperidin-1-ylmethyl]pyrimidin-4-amine]",78%,90%,59%,74%,1.97,2.1%,2.1%,−0.1%,-1.7%,0.19%,-1.7%,1.1%,9.9%,−0.17%,-7%,−0.04%,-1.7%
"Cc1ncc(CN2CCC(c3cncc(F)c3)CC2)cn1 [Example 33, 5-[4-(5-Fluoropyridin-3-yl)piperidin-1-ylmethyl]-2-methylpyrimidine]",76%,98%,28%,51%,0.44,0.4%,-34%,0.85%,-5.4%,0.29%,-5.3%,1.7%,1.2%,−0.1%,0.91%,−0.12%,7.8%
Nc1ncc(CN2CCC(c3cccnc3)CC2)cn1 [Example 37],64%,77%,18%,40%,5.51,0.31%,-22%,0.44%,-14%,5.4%,14%,18%,47%,−0.17%,7.9%,−0.27%,0.24%
